According to patent publication US12403153B2, “Nicotinamide mononucleotide derivatives and use thereof in the treatment and prevention of a red blood cell disorder” (Nuvamid SA, priority 2020, dated 2025):

How the values were obtained:
Assay type in all cases: in vivo
Townes S/S mice [1] = test: Hemoglobin concentration in blood of SCD-model mice; details: for effect on hemoglobin concentration in blood: i.p. once per day D0 to D15 (compound 001 185 mg/kg, L-Gln 180 mg/kg), under normoxia and hypoxia, vs vehicle or L-Gln
Method: (§1) The purpose of this study is to evaluate the effects of i.p. daily administration of compound 001 at 185 mg/kg and/or L-Glutamine (L-Gln) at 180 mg/Kg on hematological parameters and RBC sickling. L-Gln has received approval by the FDA for the treatment of sickle cell disease (SCD) patients in the United States as it has been shown that L-Gln administration reduces the severity and frequency of VOCs. Townes S/S mice on a 129/B6 mixed genetic background aged 8-12 weeks. The powder of compound 001 (185 mg/kg) was dissolved in vehicle (the solution is used at room temperature for maximum 1 day). The powder of L-Glutamine (180 mg/kg) was dissolved in vehicle (the solution is used at room temperature for maximum 1 day). In Townes S/S mice, mouse alpha- and beta-globin gene loci are deleted and replaced by human genes coding for the alpha- and beta-globin. When carrying two copies of the beta S allele, mice develop a human sickle disease phenotype with sickle-shaped red blood cells are seen in blood smears. Group description: • Group 1: Vehicle PBS (i.p.) • Group 2: Compound 001 (185 mg/kg) • Group 3 L-Gln (180 mg/kg) • Group 4: Compound 001 (185 mg/kg)+L-Gln (180 mg/kg) Mice were i.p treated with Compound 001, L-Gln or the combination of compound 001+L-Gln during all the experiment (D0 to D15) once per day. Last injection occurred 24 hours before sacrifice. Retro-orbital blood collection was performed at the inclusion and at D15. Ex-vivo blood collected were assessed for blood parameters and RBC sickling ex vivo under normoxia (20% Oz) and hypoxia (1% Oz for 0.5 hour).

SS RBCs = test: RBC sickling under hypoxia ex vivo, RBCs from treated SCD mice; details: Townes S/S mice; for effect on red blood cell sickling under hypoxia (conclusion): 185 mg/kg i.p. daily D0 to D15; for percentage of sickling cells at D0 / percentage of sickling cells after 15 days treatment: 185 mg/kg/d i.p., RBCs ex vivo 30 minutes hypoxia (1% Oz)
Method: (§2) The aim of the present study was to evaluate, the effects of i.p. daily administration of compounds 001, 010 and 011 at 185 mg/kg as modulator of red blood cell sickling and fetal hemoglobin expression in erythroid cells and its potential role in therapy for sickle cell disease on mouse model of SCD.
(§3) Townes S/S mice on a 129/B6 mixed genetic background.
(§4) The powders of compounds 001, 010 and 011 (185 mg/kg) were dissolved in vehicle (the solution is used at room temperature for maximum 1 day). A fresh sample for each administration was prepared every day except the week-end (the solution is prepared on Saturday and is used on Saturday and Sunday).
(§5) In Townes S/S mice, mouse alpha- and beta-globin gene loci are deleted and replaced by human alpha- and beta-globin genes. When carrying two copies of the beta S allele, mice develop a human sickle disease phenotype with sickle-shaped red blood cells are seen in blood smears.
(§6) Group description: • Group 1: Vehicle (i.p.) • Group 2: compound 001 (185 mg/kg) • Group 3 compound 010 (185 mg/kg) • Group 4: compound 011 (185 mg/kg)
(§7) Mice were i.p treated with compounds 001, 010 and 011 during all the experiment (D0 to D15) once per day. Last injection occurred 24 hours before sacrifice.
(§8) Retro-orbital blood collection was performed at the inclusion D0 and at D5, D10 and D15 through facial vein bleeding.
(§9) Ex-vivo blood collected were assessed for percentage of F-cells using antibodies against fetal hemoglobin by FACS and reticulocyte counts using reticount by FACS. Red blood cells sickling was assessed under hypoxia.
FIGS. 3, 4 and 5 show the ability of compounds 001 (FIG. 3), 010 (FIG. 4) and 011 (FIG. 5) to prevent sickling of SS RBCs at a 1% Oz. SS RBCs from treated mice and collected at D0, D5, D10 and D15 were submitted to hypoxia for 30 minutes in a hypoxic chamber (1% Oz). Percentage of sickling RBCs was then assessed for each time point with compounds 001, 010 and 011.

Townes S/S mice [2] = test: Hematocrit percentage in blood of SCD-model mice; details: for effect on hematocrit percentage in blood: i.p. once per day D0 to D15 (compound 001 185 mg/kg, L-Gln 180 mg/kg), under normoxia and hypoxia, vs vehicle or L-Gln
Method: as §1, with “hour). […] III. CONCLUSION” for “hour).”

F-cells = test: Percentage of F-cells using antibodies against fetal hemoglobin by FACS, blood of treated SCD mice; details: Townes S/S mice; for effect on proportion of circulating erythroid cells expressing fetal hemoglobin (conclusion): 185 mg/kg i.p. daily D0 to D15
Method: as §2, §3, §4, §5, §6, §7, §8, §9

Townes S/S mice [3] = test: Concentration of red blood cells in blood of SCD-model mice; details: for effect on concentration of RBC in blood: i.p. once per day D0 to D15 (compound 001 185 mg/kg, L-Gln 180 mg/kg), under normoxia and hypoxia, vs vehicle or L-Gln
Method: as §1

reticulocytes = test: Reticulocyte counts using Reticount by FACS, blood of treated SCD mice; details: Townes S/S mice, 185 mg/kg/d i.p.
Method: The aim of the present study was to evaluate, the effects of i.p. daily administration of compounds 001, 010 and 011 at 185 mg/kg as modulator of red blood cell sickling and fetal hemoglobin expression in erythroid cells and its potential role in therapy for sickle cell disease on mouse model of SCD. Townes S/S mice on a 129/B6 mixed genetic background. The powders of compounds 001, 010 and 011 (185 mg/kg) were dissolved in vehicle (the solution is used at room temperature for maximum 1 day). A fresh sample for each administration was prepared every day except the week-end (the solution is prepared on Saturday and is used on Saturday and Sunday). In Townes S/S mice, mouse alpha- and beta-globin gene loci are deleted and replaced by human alpha- and beta-globin genes. When carrying two copies of the beta S allele, mice develop a human sickle disease phenotype with sickle-shaped red blood cells are seen in blood smears. Group description: • Group 1: Vehicle (i.p.) • Group 2: compound 001 (185 mg/kg) • Group 3 compound 010 (185 mg/kg) • Group 4: compound 011 (185 mg/kg) Mice were i.p treated with compounds 001, 010 and 011 during all the experiment (D0 to D15) once per day. […] Ex-vivo blood collected were assessed for percentage of F-cells using antibodies against fetal hemoglobin by FACS and reticulocyte counts using reticount by FACS. Red blood cells sickling was assessed under hypoxia.

[4] = 185 mg/kg/d i.p., hypoxia (1% Oz for 0.5 hour) vs normoxia

Compound: NC(=O)c1ccc[n+]([C@@H]2O[C@H](COP(=O)([O-])O)[C@@H](O)[C@H]2O)c1 (stereo in doubt) [Compound 001, NMN]
- effect of hypoxia on hemoglobin in blood of treated mice (Townes S/S mice [1]; [4]): did not result in a decrease
- effect on hemoglobin concentration in blood (Townes S/S mice [1]): significant increase
- effect on red blood cell sickling under hypoxia (conclusion) (SS RBCs): reduce red blood cell sickling under hypoxia
- percentage of sickling cells at D0 (SS RBCs): 40%
- percentage of sickling cells after 15 days treatment (SS RBCs): less than 10%
- effect of hypoxia on hematocrit percentage in blood of treated mice (Townes S/S mice [2]; [4]): did not result in a decrease
- effect on hematocrit percentage in blood (Townes S/S mice [2]): significant increase
- effect on proportion of circulating erythroid cells expressing fetal hemoglobin (conclusion) (F-cells): increase the proportion of circulating erythroid cells expressing fetal hemoglobin
- mean F-cells after treatment (F-cells; 185 mg/kg/d i.p., over the 15 days treatment): 8%
- mean F-cells, starting value (F-cells; 185 mg/kg/d i.p., value before the 15 days treatment): less than 5%
- effect of hypoxia on RBC in blood of treated mice (Townes S/S mice [3]; [4]): did not result in a decrease
- effect on concentration of RBC in blood (Townes S/S mice [3]): significant increase
- percentage of reticulocytes after treatment (reticulocytes; over the 15 days treatment): 30%
- percentage of reticulocytes, starting value (reticulocytes; value before the 15 days treatment): 70%

Compound: α,α-diNMN [Compound 011]
- effect on red blood cell sickling under hypoxia (conclusion) (SS RBCs): reduce red blood cell sickling under hypoxia
- percentage of sickling cells at D0 (SS RBCs): 31%
- percentage of sickling cells after 15 days treatment (SS RBCs): 20%
- effect on proportion of circulating erythroid cells expressing fetal hemoglobin (conclusion) (F-cells): increase the proportion of circulating erythroid cells expressing fetal hemoglobin

Compound: NC(=O)CC[C@H](N)C(=O)O [L-Gln, L-Glutamine, reference compound]
- effect on hemoglobin concentration in blood (Townes S/S mice [1]): did not affect
- effect on hematocrit percentage in blood (Townes S/S mice [2]): did not affect
- effect on concentration of RBC in blood (Townes S/S mice [3]): did not affect

Compound: α,β-diNMN [Compound 010]
- effect on red blood cell sickling under hypoxia (conclusion) (SS RBCs): reduce red blood cell sickling under hypoxia
- percentage of sickling cells at D0 (SS RBCs): 32%
- percentage of sickling cells after 15 days treatment (SS RBCs): less than 15%
- effect on proportion of circulating erythroid cells expressing fetal hemoglobin (conclusion) (F-cells): increase the proportion of circulating erythroid cells expressing fetal hemoglobin
